Measurements published in patent US12150927B2, “Use of cannabidiolic acid in the treatment of autism spectrum disorder and associated disorders” (GW Research Limited, priority 2016, dated 2024).
Values joined by “and” are separate entries in the source; they are usually repeats but may differ in a detail not shown here. Equal values may be shown once.

What was measured:
Format in all cases: in vivo
MeCP2 KO mice = assay: Novel Object Recognition (NOR) test, short- and long-term memory, mouse model of Rett syndrome
Experimental: Furthermore, the efficacy of CBDA in reverting/attenuating the short- and long-term memory deficits present in these mice was evaluated. The Novel Object Recognition (NOR) test was performed before the starting of the treatment Post Natal Day 28 (PND 28), at PND 41 when the first motor symptoms appear and at PND 56 and 66 when the disease is fully manifested.
At PND 28, 41, 56 and 66 the effect of CBDA on short- and long-term memory deficits was investigated through the Novel Object Recognition (NOR) test.
The experiment was performed as previously described (Zamberletti E. et al. 2014 and Kruk-Stomka M. et al. 2014).
The experimental apparatus used for the Novel Object Recognition test was an open-field box (43×43×32 cm) made of Plexiglas, placed in a dimly illuminated room. Animals performed each test individually.
Briefly, each animal was placed in the arena and allowed to explore two identical previously unseen objects for 10 minutes (familiarization phase). After an inter-trial interval of 30 minutes and 24 hours one of the two familiar objects was replaced by a novel, previously unseen object and mice were returned to the arena for the 10-minute test phase.
During the test phase the time spent exploring the familiar object (Ef) and the new object (En) was recorded separately by two observers blind to the groups and the discrimination index was calculated as follows: [(En−Ef)/(En+Ef)]×100.

MeCP2 KO and WT mice = assay: Survival, mouse model of Rett syndrome
Experimental: CBDA was administered daily at the dose of 2 or 20 mg/kg i.p. starting from PND 28 and the following signs were scored every other day: hindlimb clasping (indication of motor imbalance), tremor, gait (measure of coordination), breathing, mobility and general condition.
The CBDA was dissolved in ethanol, cremophor and saline (1:1:18). Starting from PND 28, mice received a daily intraperitoneal injection of CBDA (or vehicle) at the dose of 2 or 20 mg/kg. Animals were then scored every other day to evaluate the effect of CBDA treatment on motor symptoms (hindlimb clasping, gait, mobility) as well as neurological signs and general conditions (breathing abnormalities, tremors and general condition) present in MeCP2 knockout (KO) mice.

[1] = system: Fmr1 KO and WT mice (PND21); assay: Susceptibility to audiogenic seizures
Experimental: This trait was evaluated in PND21 mice after acute administration of the compounds or its vehicle, 30 min before starting the procedure. To measure audiogenic seizure sensitivity mice were placed individually into a novel environment, a glass cylinder (40 cm high, 16 cm diameter) and allowed to explore for 1 min. Next, a bell (100 dB) was rung for 30 see and seizure activity scored according to the following scale: no response, 0; wild running, 1; clonic seizure, 2; tonic seizure, 3; status epilepticus/respiratory arrest/death, 4.
On postnatal day 21 (PND21) WT and Fmr1 KO mice were injected with CBDA (20 mg/kg) or vehicle, 30 min before exposure to a bell ring (100 dB). Mice exposed to this noise for 30 see ceased from their normal exploratory behaviour and reacted with gradually to wild-running, clonic seizure, tonic seizure or death. The maximum response was annotated for each mouse as detailed in Table 2 below. A score was calculated according to the severity of the symptoms as explained in the Methods section.

Fmr1 KO mice = assay: Novel object recognition task, mouse model of fragile X syndrome
Experimental: Fmr1 KO mice and wild type mice were obtained and housed four per cage in a temperature of 21° C.±1° C. and humidity of 55%±10% controlled environment. Food and water were available ad libitum. All experiments were performed during the light phase of a 12 hour light/dark cycle (08:00 to 20:00). Animals were handled for one week before the start of experiments. All behavioural tests were performed by researchers blind to the different experimental groups.
On day one mice were habituated for 10 minutes to the empty V-maze in which the task was to be performed. On the second day the mice went back to the maze for 10 minutes which contained two identical objects at the end of each corridor in the V-maze.
The following day the mice were placed again in the same maze for a further 10 minutes but one of the familiar objects was replaced for a novel object. The total time spent exploring the novel and familiar object was recorded. A discrimination index was calculated as the difference between the time spent exploring the novel and familiar object divided by the total time exploring the two objects. A high discrimination index (0.3-0.5) is considered to reflect memory retention for the familiar object.
Adult mice […] were treated either acutely with one dose of 20 mg/kg CBDA on PND 21 for 7 consecutive days. Mice were evaluated in the novel object recognition task after the first and sixth day of CBDA administration.

[2] = FXS (Fmr1 KO) mice PND21, n = 5, CBDA 20 mg/kg acute (30 min)
[3] = WT mice PND21, n = 6, CBDA 20 mg/kg acute (30 min)

C=C(C)[C@@H]1CCC(C)=C[C@H]1c1c(O)cc(CCCCC)c(C(=O)O)c1O [CBDA, Cannabidiolic acid]
short-term memory in the NOR test (MeCP2 KO mice; MeCP2 KO mice, CBDA 2 and 20 mg/kg i.p., each time point (PND 41, 56, 66), 30 min inter-trial interval, FIG. 10): reverted the cognitive impairment in short-term memory | long-term memory in the NOR test (MeCP2 KO mice; MeCP2 KO mice, both doses of CBDA (2 and 20 mg/kg i.p.), 24 hours inter-trial interval, FIG. 11): counteract the cognitive impairment in long-term memory | short-term recognition memory in the NOR test (MeCP2 KO mice; WT littermates, CBDA 2 and 20 mg/kg i.p., FIG. 10): without affecting recognition memory | long-term recognition memory in the NOR test (MeCP2 KO mice; WT littermates, both doses of CBDA, FIG. 11): without affecting recognition memory | survival rate (MeCP2 KO and WT mice; MeCP2 KO mice, chronic CBDA 20 mg/kg i.p., PND 67 (vehicle KO 57.14%), FIG. 6): 85.14% and 85% | lethality (MeCP2 KO and WT mice; WT mice treated with CBDA (2 and 20 mg/kg i.p. daily)): No lethality | number of mice with maximum response: Clonic seizure [1, 2]: 0 | number of mice with maximum response: Death [1, 2]: 0 | number of mice with maximum response: No response [1, 2]: 2 | number of mice with maximum response: Tonic seizure [1, 2]: 1 | number of mice with maximum response: Wild running [1, 2]: 2 | seizure severity ([1]; FXS mice, CBDA 20 mg/kg, 30 min before 100 dB bell, vs vehicle): either no seizures or seizures of lower severity | number of mice with maximum response: Clonic seizure [1, 3]: 0 | number of mice with maximum response: Death [1, 3]: 0 | number of mice with maximum response: No response [1, 3]: 6 | number of mice with maximum response: Tonic seizure [1, 3]: 0 | number of mice with maximum response: Wild running [1, 3]: 0 | discrimination index level (Fmr1 KO mice; Fmr1 KO mice treated with CBDA over 7 days): 0.32 | discrimination index (Fmr1 KO mice; acute treatment, CBDA 20 mg/kg, Fmr1 KO mice vs KO vehicle, FIG. 3): increase the discrimination index slightly over that of the knockout mice administered vehicle, however this was not significant | discrimination index (effect vs vehicle) (Fmr1 KO mice; chronic treatment, once daily for 7 days, CBDA 20 mg/kg, Fmr1 KO mice, FIG. 4): statistically significant increase in the discrimination index
